One molecule from patent US9988371B2, “Benzimidazole analogues and related methods” (The Arizona Board of Regents, on Behalf of the University …, priority 2014, dated 2018) can be followed below.

One may read the half-life as how long it takes for the measured level to halve.

The nature of one data set: PK study in rats. It counts as in vivo. As to the method:
For PK studies of Pz-1 in animals, a solution formulation for oral administration was created in 500 μL of polysorbate 80, 500 μL of EtOH, and 1.0 mL of pH 2 buffer. For the toxicity studies, a suspension formulation was developed in tween 20 (20%) and xanthan gum (0.125%).
T112 (3-4 hrs) in rats was in line with T1/2 in mice (4.2 hrs).

Another data set has as its target T1, RET/C634W (Homo sapiens, UniProt P07949, C634W).
T1 construct: RET protein endogenously expressed in TT cells; endogenous in cells; host or cells: TT (human medullary thyroid carcinoma)
Put plainly: RET auto-phosphorylation immunoblot in TT cells. It counts as cell-based. The note with it: 1 nM. As to the method:
FIG. 3: Photographs of blots showing inhibition of RET protein endogenously expressed in TT cells (human MTC cell line expressing RET/C634W) by indicated concentrations of Pz-1 or vehicle (NT: not treated) and reduced effects in thyroid non-transformed Nthy-ori-3-1 cells. Serum-starved human TT and thyroid non-transformed Nthy-ori-3-1 cell lines were treated for 2 hr with indicated concentrations of Pz-1. 50 μg of total cell lysates were subjected to immunoblotting with anti-phospho-Y1062 (αp1062) and anti-phospho-905 (αpY905) RET antibodies, anti-phospho-MAPK (αpMAPK, T302/Y304), and anti-phospho-SHC (αpSHC, Y317) antibodies. The blots were normalized using anti-RET (αRET) and anti-SHC (αSHC).
The inhibition of RET auto-phosphorylation by Pz-1 was measured in several different cell lines including NIH3T3 fibroblasts expressing RET/C634Y or RET/M918T, TT expressing RET/C634W (MTC), Nthy-ory-3-1 (thyroid, non-transformed with RET; negative control), HEK293/RET/PTC1 (CCDC6-RET that can be found in PTC & lung cancer), HEK293/RET-KIF5B (that can be found in lung cancer), HEK293/RET/PTC3 (NCOA4-RET, that can be found in PTC & lung cancer), and HEK293 transfected with RET/C634R-V804M (FIGS. 1-3). […]
Protein lysates were prepared according to standard procedures. […] Immune complexes were detected with the enhanced chemiluminescence kit (Amersham Pharmacia Biotech, Little Chalfort, UK). […]
(In general: Immunoblotting shows a protein as a band on a membrane.)

T1 sequence (P07949 29-1114 C634W): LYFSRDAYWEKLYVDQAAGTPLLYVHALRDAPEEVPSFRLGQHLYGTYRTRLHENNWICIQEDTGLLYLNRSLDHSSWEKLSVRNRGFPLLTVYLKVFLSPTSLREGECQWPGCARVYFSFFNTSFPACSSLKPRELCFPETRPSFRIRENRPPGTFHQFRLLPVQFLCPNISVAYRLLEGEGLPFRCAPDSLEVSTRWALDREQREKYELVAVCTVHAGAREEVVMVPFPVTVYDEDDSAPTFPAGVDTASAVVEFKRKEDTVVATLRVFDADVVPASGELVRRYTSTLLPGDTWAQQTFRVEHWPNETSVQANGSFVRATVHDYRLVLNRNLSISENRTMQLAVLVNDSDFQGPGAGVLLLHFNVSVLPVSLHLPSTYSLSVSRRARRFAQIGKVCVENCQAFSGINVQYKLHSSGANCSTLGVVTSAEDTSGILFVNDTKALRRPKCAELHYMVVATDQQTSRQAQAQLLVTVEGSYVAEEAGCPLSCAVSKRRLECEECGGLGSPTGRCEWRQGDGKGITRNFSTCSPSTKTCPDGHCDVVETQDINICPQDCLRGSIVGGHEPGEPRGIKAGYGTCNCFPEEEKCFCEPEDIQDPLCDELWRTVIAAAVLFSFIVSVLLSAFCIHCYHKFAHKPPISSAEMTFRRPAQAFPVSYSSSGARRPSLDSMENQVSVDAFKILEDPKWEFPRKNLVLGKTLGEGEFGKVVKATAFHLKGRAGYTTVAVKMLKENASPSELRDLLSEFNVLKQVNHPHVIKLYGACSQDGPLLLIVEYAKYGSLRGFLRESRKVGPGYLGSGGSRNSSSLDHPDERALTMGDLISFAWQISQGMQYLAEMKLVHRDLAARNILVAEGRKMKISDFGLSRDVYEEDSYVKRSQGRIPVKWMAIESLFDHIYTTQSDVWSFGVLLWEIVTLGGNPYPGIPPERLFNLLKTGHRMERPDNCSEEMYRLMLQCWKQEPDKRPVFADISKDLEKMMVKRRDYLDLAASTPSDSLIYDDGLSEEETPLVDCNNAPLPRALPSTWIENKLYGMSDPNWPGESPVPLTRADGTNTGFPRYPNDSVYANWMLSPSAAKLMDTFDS

Consider `Cn1cc(-c2ccc3c(c2)ncn3-c2ccc(CC(=O)Nc3cc(C(C)(C)C)on3)cc2)cn1` [Pz-1, N-(5-(tert-butyl)isoxazol-3-yl)-2-(4-(5-(1-methyl-1H-pyrazol-4-yl)-1H-benzo[d]imidazol-1-yl)phenyl)acetamide], for which, in “PK study in rats”, the T112 lay in the range of 3 to 4 h and the volume distribution was found to be 2.02 L/kg. The same molecule had an AUC in the data set “PK study in rats” (1 mg/kg (IV)) of 1.9 µg/h/mL. The AUC in “PK study in rats” (10 mg/kg (oral)) is 19 µg/h/mL. Besides, the bioavaliblity in the data set “PK study in rats” (oral) turned out to be 97%. Besides, in the data set “PK study in rats” (rat, in vivo, 10 mg/kg, oral study, read-out: elimination half-life (converted)), the half-life is 4.2 h. The same molecule showed a clearance in the data set “PK study in rats” (rat, in vivo, oral, 10 mg/kg) of 9 mL/min/kg. Moreover, the “inhibition of pRET” value against RET/C634W is on record as “strongly inhibited”.
